Where a SMILES comes first, the peptide text is derived from it. [ ]: non-standard residue; d: D form. The star is where a group is joined. Nva = CCC[C@H](N)C(=O)O; Cbz = O=C(OCc1ccccc1)*
Test system: Jurkat T cells
Assay: Western blot and Bax IP/ubiquitin blot in Jurkat T cells
Type: cell-based, human
Method: FIGS. 8A-8D show proteasome inhibition accumulates Bax to mitochondria/cytoplasm and increases interaction between Bax and Bcl-2 proteins. Jurkat cells (0 h; FIG. 8A and FIG. 8B) or Jurkat cells overexpressing Bcl-2 (0 h; FIG. 8C and FIG. 8D) were treated by either 10 μM lactacystin (FIGS. 8A-8C), 50 μM LLnV (FIG. 8D), or 50 μM LLM (FIG. 8A and FIG. 8B) for the indicated hours. (FIG. 8A and FIG. 8B) Western blotting with antibodies to PARP and Bax were performed as described in FIG. 7. (FIG. 8C) Immunohistochemistry (see MATERIALS AND METHODS). Localization of Bax protein (green) and nuclei (red) are shown. (FIG. 8D) Bax immunoprecipitates, prepared by an agarose-conjugated N-20 Bax antibody, were immunoblotted first with the 6A7 Bax antibody (upper) and then reblotted with a Bcl-2 antibody (lower).
FIGS. 9A-9F show Bax degradation depends on ubiquitination, proteasome and ATP. (FIG. 9A) Jurkat cells (0 h) were treated with either 50 μM LLnV or 10 μM lactacystin, followed by preparation of Bax immunoprecipitates (with clone 6A7), which were immunoblotted with an ubiquitin antibody. Positions of putative ubiquitinated Bax proteins (p47, p55) are indicated at left. The nature of the ˜30 kDa and ˜84 kDa remains unclear. (FIG. 9B) The [^35S]-labeled Bax (upper) or Bcl-2 (lower) protein (1 μl) were incubated at 37° C. for 2 h with either buffer Z only (lane 1) or […] protein extract of MCF-7 cells grown exponentially (lane 2) or pretreated for 8 h with […] LLnV (lane 3). (FIG. 9C) The [^35S]-labeled Bax protein (1 μl) was incubated with either buffer Z only (lane 1) or 100 μg MCF-7 cell lysate at 37° C. for 4 h, in the presence of an indicated inhibitor (100 mM; lanes 3-8) or an equal volume of DMSO (lane 2) in buffer Z. A weak band of ˜16 kDa (indicated by an arrow) is probably an intermediate product of proteasome-mediated Bax degradation. (FIG. 9D) The proteasome in MCF-7 whole cell lysate (W lys, lane 1) was precipitated by using either ultraspin (ULS) or a proteasome subunit a6 antibody (IP). Both supernatant (lanes 2, 4) and pellet (lanes 3, 5) fractions were examined by Western blot assay using antibody to the proteasome a6 subunit (MW 33 kDa). (FIG. 9E) Bax degradation assay was performed as in FIG. 9B, with addition of buffer Z (lane 1) or 100 μg protein from MCF-7 whole cell lysate (lane 2), ultraspun supernatant (lane 3) or plus the pellet (lane 4), immunodepleted supernatant (lane 5) or plus a purified 20S proteasome ([…]; lane 6), or the purified proteasome alone (2 μg; lane 7). (FIG. 9F) Bax degradation assay was performed as in FIG. 9B, in the absence (lane 3) or presence of 10 mM ATP (lane 2) or 10 mM ATP-y-S (lane 4). […]

CCC[C@@H](C=O)NC(=O)[C@H](CC(C)C)NC(=O)[C@H](CC(C)C)NC(=O)OCc1ccccc1 [LLnV] (Cbz-Leu-Leu-[Nva]-aldehyde)
p55 and p47 levels (putative ubiquitinated Bax) (50 μM LLnV, 8 hours): significantly increased

CC(=O)N[C@@H](CSC(=O)[C@]1([C@@H](O)C(C)C)NC(=O)[C@H](C)[C@@H]1O)C(=O)O [lactacystin]
p55 and p47 levels (putative ubiquitinated Bax) (10 μM lactacystin, 4 hours): significantly increased | Bax accumulation and PARP cleavage (10 microM): induced Bax accumulation and PARP cleavage

— patent publication US6692927B2, “Bax degradation involvement in tumor survival and progression” (University of South Florida, priority 2000, dated 2004)
